The values below come from patent US7632829B2, “Diazepan derivatives” (Hoffmann-La Roche Inc., priority 2006, dated 2009).

This test deals with T1, human chemokine receptor 2 isoform B (Homo sapiens, UniProt P41597).
T1 construct: host or cells: CHOK1-CCR2B-A5 (CHO-K1)
T1 sequence (P41597 1-360 isoform P41597-2): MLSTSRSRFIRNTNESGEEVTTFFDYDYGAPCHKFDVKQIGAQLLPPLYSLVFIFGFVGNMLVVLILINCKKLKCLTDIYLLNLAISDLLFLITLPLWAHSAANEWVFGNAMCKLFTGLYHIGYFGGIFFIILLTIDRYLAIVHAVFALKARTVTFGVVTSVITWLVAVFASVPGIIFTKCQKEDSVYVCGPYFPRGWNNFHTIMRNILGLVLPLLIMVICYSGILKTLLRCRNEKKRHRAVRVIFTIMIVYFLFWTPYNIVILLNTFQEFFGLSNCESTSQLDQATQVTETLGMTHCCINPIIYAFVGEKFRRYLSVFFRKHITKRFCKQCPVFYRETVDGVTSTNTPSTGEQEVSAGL
In words: Calcium mobilization assay (FLIPR, CHOK1-CCR2B-A5 cells, 20 nM MCP-1). To be noted: Ca mobilisation assay, CCR2, antagonist activity vs 20 nM MCP-1. It counts as cell-based. How it is done:
CHOK1-CCR2B-A5 cells (from Euroscreen) stably overexpressing the human chemokine receptor 2 isoform B were cultured in Nutrient Hams F12 medium supplemented with 5% FBS, 100 U/ml penicillin, 100 μg/ml streptomycin, 400 μg/ml G418 and 5 μg/ml puromycin.
For the assay cells were grown overnight in 384-well black clear flat bottom polystyrene plates (Costar) at 37° C. at 5% CO2. After washing with DMEM, 20 mM Hepes, 2.5 mM probenecid, 0.1% BSA (DMEM assay buffer) cells were loaded with 4 μM Fluo-4 in the same DMEM assay buffer for 2 hours at 30° C. Excess dye was removed and cells were washed with DMEM assay buffer. 384-well compound plates were prepared with DMEM assay buffer/0.5% DMSO with or without various concentrations of test compounds. Usually compounds were tested for agonist and antagonist activity.
Test compounds were added to the assay plate and agonist activity was monitored as fluorescence for 80 seconds with a FLIPR (488 nm excitation; 510-570 nm emission; Molecular Devices). After 20-30 min. of incubation at 30° C., 20 nM MCP-1 (R&D; Roche) was added and fluorescence was monitored again for 80 seconds. Increases in intracellular calcium are reported as maximum fluorescence after agonist exposure minus basal fluorescence before exposure. Antagonist activity is indicated as inhibitor concentration required for 50% inhibition of specific calcium increases.
A general note: A change in cytosolic calcium serves as a functional read-out for many receptors and channels.

What is called IC50 is the point on the concentration scale where inhibition reaches its midpoint. Regarding `O=C(/C=C/c1ccc(Cl)c(Cl)c1)N1CCC(=O)N(CCCN2CCCCC2CO)CC1` (racemic) [Example 227], the IC50 turned out to be 409 nM.

For the compound `CC1CCCN(CC(O)CN2CCN(C(=O)/C=C/c3ccc(Cl)c(Cl)c3)CCC2=O)C1` (racemic) [Example 288], the IC50 is 206 nM. The value for `C[N+]1(CCCN2CCN(C(=O)/C=C/c3ccc(Cl)c(Cl)c3)CCC2=O)CCC2(CC1)NC(=O)NC2=O` (stereo not drawn) [Example 153, 8-(3-{4-[(E)-3-(3,4-Dichloro-phenyl)-acryloyl]-7-oxo-[1,4]diazepan-1-yl}-propyl)-8-methyl-2,4-dioxo-1,3-diaza-8-azonia-spiro[4.5]decane iodide] was 446 nM. The value for `CC1(C)CCN(C[C@H](O)CN2CCN(C(=O)/C=C/c3ccc(F)c(Cl)c3)CCC2=O)CC1O` (stereo partly drawn) [Example 343, 1-[(E)-3-(3-Chloro-4-fluoro-phenyl)-acryloyl]-4-[(S)-2-hydroxy-3-(3-hydroxy-4,4-dimethyl-piperidin-1-yl)-propyl]-[1,4]diazepan-5-one] was 11 nM. The same measure for `COC1COCCC1NCCCN1CCN(C(=O)C=Cc2ccc(Cl)c(Cl)c2)CCC1=O` (mixture of isomers) [Example 275, (rac,cis)-1-[(E)-3-(3,4-Dichloro-phenyl)-acryloyl]-4-[3-(3-methoxy-tetrahydro-pyran-4-ylamino)-propyl]-[1,4]diazepan-5-one]: 1090 nM; for `C[C@@H]1C[C@H](O)CN(C[C@H](O)CN2CCN(C(=O)/C=C/c3ccc(F)c(Cl)c3)CCC2=O)C1` (mixture of isomers) [Example 344, 1-[(E)-3-(3-Chloro-4-fluoro-phenyl)-acryloyl]-4-[(S)-2-hydroxy-3-(cis-3-hydroxy-5-methyl-piperidin-1-yl)-propyl]-[1,4]diazepan-5-one]: 26 nM. In the case of `C[C@@H]1CCN(CC(O)CN2CCN(C(=O)/C=C/c3ccc(Cl)c(Cl)c3)CCC2=O)C[C@H]1O` (mixture of isomers) [Example 315, (rac)-1-[(E)-3-(3,4-Dichloro-phenyl)-acryloyl]-4-[2-hydroxy-3-(trans-3-hydroxy-4-methyl-piperidin-1-yl)-propyl]-[1,4]diazepan-5-one], the half-inhibitory concentration (IC50) came out at 717 nM.

Turning to `CC1CCCN1CCN1CCN(C(=O)/C=C/c2ccc(Cl)c(Cl)c2)CCC1=O` (racemic) [Example 348], the IC50 was 765 nM. The value for `CC1(C)CCN(CCCN2CCN(C(=O)/C=C/c3ccc(Cl)c(Cl)c3)CCC2=O)CC1O` (racemic) [Example 274] was 4 nM; that for `CN(CCCN1CCN(C(=O)/C=C/c2ccc(Cl)c(Cl)c2)CCC1=O)C1CCCC1` [Example 37, 4-[-3-(Cyclopentyl-methyl-amino)-propyl]-1-[(E)-3-(3,4-dichloro-phenyl)-acryloyl]-[1,4]diazepan-5-one] was 265 nM; that for `CC1(O)CCCN(CCCCN2CCN(C(=O)/C=C/c3ccc(Cl)c(Cl)c3)CCC2=O)C1` (racemic) [Example 431] was 448 nM. In the case of “(rac)-1-[(E)-3-(3,4-Dichloro-phenyl)-acryloyl]-4-[2-hydroxy-3-(2-hydroxy-2-hydroxymethyl-piperidin-1-yl)-propyl]-[1,4]diazepan-5-one [Example 307]”, the half-maximal inhibitory concentration (IC50) turned out to be 437 nM. The value for `O=C(/C=C/c1ccc(Cl)c(Cl)c1)N1CCC(=O)N(CC(O)CN2CCC3(CC3)C(O)C2)CC1` (racemic) [Example 309, (rac)-1-[(E)-3-(3,4-Dichloro-phenyl)-acryloyl]-4-[2-hydroxy-3-(4-hydroxy-6-aza-spiro[2.5]oct-6-yl)-propyl]-[1,4]diazepan-5-one] was 16 nM; that for `O=C(/C=C/c1ccc(Cl)c(Cl)c1)N1CCC(=O)N(CCN2CCCCC2)CC1` [Example 3, 1-[(E)-3-(3,4-Dichloro-phenyl)-acryloyl]-4-(2-piperidin-1-yl-ethyl)-[1,4]diazepan-5-one] was 1240 nM; that for `O=C(/C=C/c1ccc(Cl)c(Cl)c1)N1CCC(=O)N(CCN[C@@H]2CCCC[C@H]2O)CC1` (racemic) [Example 355] was 982 nM. The same measure for `O=C(/C=C/c1ccc(Cl)c(Cl)c1)N1CCC(=O)N(CCCCN2CCCCC2CO)CC1` (racemic) [Example 427, (rac)-1-[(E)-3-(3,4-Dichloro-phenyl)-acryloy]-4-[4-(2-hydroxymethyl-piperidin-1-yl)-butyl]-[1,4]diazepan-5-one]: 259 nM; for `O=C(/C=C/c1ccc(Cl)c(F)c1)N1CCC(=O)N(CCCN2CCCCC2)CC1` [Example 13, 1-[(E)-3-(4-Chloro-3-fluoro-phenyl)-acryloyl]-4-(3-piperidin-1-yl-propyl)-[1,4]diazepan-5-one]: 727 nM. The same measure for `COCC1CCCN(CCCN2CCN(C(=O)/C=C/c3ccc(Cl)c(Cl)c3)CCC2=O)C1` (racemic) [Example 236]: 565 nM. As for `COCC1CCN(CC(O)CCN2CCN(C(=O)/C=C/c3ccc(Cl)c(Cl)c3)CCC2=O)CC1` (racemic) [Example 360], the IC50 turned out to be 179 nM. The same measure for `C[C@@H]1CN(CC(O)CN2CCN(C(=O)C=Cc3ccc(Cl)c(Cl)c3)CCC2=O)CC[C@@H]1O` (mixture of isomers) [Example 318]: 707 nM; for `O=C(/C=C/c1ccc(F)c(Cl)c1)N1CCC(=O)N(CCCCN2CCCCC2)CC1` [Example 382]: 246 nM; for `CC1(CO)CCCN(CCCCN2CCN(C(=O)/C=C/c3ccc(Cl)c(Cl)c3)CCC2=O)C1` (racemic) [Example 445]: 354 nM. The same measure for `O=C(/C=C/c1ccc(F)c(Cl)c1)N1CCC(=O)N(C[C@@H](O)CN2CCC3(CC3)C(O)C2)CC1` (stereo partly drawn) [Example 336, 1-[(E)-3-(3-Chloro-4-fluoro-phenyl)-acryloyl]-4-[(S)-2-hydroxy-3-((−)-4-hydroxy-6-aza-spiro[2.5]oct-6-yl)-propyl]-[1,4]diazepan-5-one]: 3 nM; for `O=C(/C=C/c1ccc(Cl)c(Cl)c1)N1CCC(=O)N(CCC(O)CN2CCCCC2CO)CC1` (racemic) [Example 374]: 580 nM; for `COC1CCCN(CCCCN2CCN(C(=O)/C=C/c3ccc(F)c(Cl)c3)CCC2=O)C1` (racemic) [Example 395]: 996 nM. The same measure for “1-[(E)-3-(3,4-Dichloro-phenyl)-acryloyl]-4-[3-(4-methyl-piperazin-1-yl)-propyl]-[1,4]diazepan-5-one [Example 75]”: 267 nM. As to `CC1CCCCN1CCN1CCN(C(=O)C=Cc2ccc(Cl)c(Cl)c2)CCC1=O` (racemic) [Example 102, (+/−)-1-[(E)-3-(3,4-Dichloro-phenyl)-acryloyl]-4-[3-(2-methyl-piperidin-1-yl)-ethyl]-[1,4]diazepan-5-one], the IC50 stood at 1020 nM. The value for `O=C(/C=C/c1ccc(Cl)c(Cl)c1)N1CCC(=O)N(CC(O)CN2CCN(C3CCCC3)CC2)CC1` (racemic) [Example 298] was 281 nM; that for `COCC1CN(CCCCN2CCN(C(=O)/C=C/c3ccc(Cl)c(Cl)c3)CCC2=O)CCC1O` (racemic) [Example 451] was 682 nM; that for `COC1CCCN(CCCN2CCN(C(=O)/C=C/c3ccc(Cl)c(Cl)c3)CCC2=O)C1` (racemic) [Example 80, (+/−)-1-[(E)-3-(3,4-Dichloro-phenyl)-acryloyl]-4-[3-(3-methoxy-piperidin-1-yl)-propyl]-[1,4]diazepan-5-one] was 263 nM.

With `O=C(O)C(CN1CCCCC1)CN1CCN(C(=O)/C=C/c2ccc(Cl)c(Cl)c2)CCC1=O` (racemic) [Example 183, Lithium; (rac)-3-{4-[(E)-3-(3,4-dichloro-phenyl)-acryloyl]-7-oxo-[1,4]diazepan-1-yl}-2-piperidin-1-ylmethyl-propionate], the IC50 is 1230 nM.

Turning to `O=C(/C=C/c1ccc(Cl)c(Cl)c1)N1CCC(=O)N(CC(O)CN2CCCCC2)CC1` (racemic) [Example 166, (rac)-1-[(E)-3-(3,4-Dichloro-phenyl)-acryloyl]-4-(2-hydroxy-3-piperidin-1-yl-propyl)-[1,4]diazepan-5-one], the concentration for half-maximal inhibition (IC50) was found to be 212 nM. The same measure for `CC1CCC(O)CN1CCCCN1CCN(C(=O)/C=C/c2ccc(Cl)c(Cl)c2)CCC1=O` (racemic) [Example 487]: 14 nM; for `CC1CC(O)CN(CCCCN2CCN(C(=O)C=Cc3ccc(Cl)c(F)c3)CCC2=O)C1` (mixture of isomers) [Example 421, (rac,cis)-1-[(E)-3-(4-Chloro-3-fluoro-phenyl)-acryloyl]-4-[4-(3-hydroxy-5-methyl-piperidin-1-yl)-butyl]-[1,4]diazepan-5-one]: 64 nM; for `O=C(/C=C/c1ccc(Cl)c(F)c1)N1CCC(=O)N(CCCCN2CCC3(CC3)C(O)C2)CC1` (stereo not drawn) [Example 415]: 27 nM. Regarding `C[C@@H]1C[C@H](O)CN(C[C@H](O)CCN2CCN(C(=O)/C=C/c3ccc(F)c(Cl)c3)CCC2=O)C1` [Example 502], the IC50 turned out to be 253 nM.
